From ChEMBL document CHEMBL1158875, “Plakinidine D, a new pyrroloacridine alkaloid from two ascidians of the genus Didemnum” (J Nat Prod, 1997)
Active and inactive are the calls of the source. The rule behind the calls is not given here.

System: HCT-116
Experiment: Cytotoxicity against human HCT116 cells at 5 ug/mL
Assay type: functional, cell-based

## Nc1c2c(c3nc4ccccc4c4c3c1N=C4)NCCC2=O
  Activity: Active
